Assay results: patent publication EP4603105A1, “PHARMACEUTICAL COMPOSITION CONTAINING CYCLIC COMPOUND HAVING SELECTIVE KRAS INHIBITORY EFFECT AGAINST HRAS AND NRAS” (CHUGAI SEIYAKU KABUSHIKI KAISHA, priority 2022, dated 2024)
Read-outs that look alike come from different tables or passages of the source.

Tests used:
[1] = target: GDP-bound KRAS wild-type protein (Homo sapiens, UniProt P01116); test: Binding to KRAS by surface plasmon resonance (SPR), dissociation constant KD
In short: (§1)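 Measured at 30°C: SPR with GDP-loaded, E. coli-expressed biotin-Avi RAS captured (~100–300 RU), ascending 75 s compound injections, HBS pH 7.4 with GDP, MgCl2, 4% DMSO. KD from 1:1 fit.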

[2] = target: GDP-bound NRAS wild-type protein (Homo sapiens, UniProt P01111); test: Binding to NRAS by surface plasmon resonance (SPR), KD and KD ratio to KRAS
GDP-bound NRAS wild-type protein, sequence (P01111 whole entry): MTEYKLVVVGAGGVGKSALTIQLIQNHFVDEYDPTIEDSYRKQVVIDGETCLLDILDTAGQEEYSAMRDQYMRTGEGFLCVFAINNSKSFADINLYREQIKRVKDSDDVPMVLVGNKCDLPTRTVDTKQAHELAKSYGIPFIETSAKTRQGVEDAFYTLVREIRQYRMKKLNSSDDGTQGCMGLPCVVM
In short: as §1

HRAS wild-type protein = HRAS wild-type protein (Homo sapiens, UniProt P01112); test: Binding to HRAS by surface plasmon resonance (SPR), KD and KD ratio to KRAS
HRAS wild-type protein, sequence (P01112 whole entry): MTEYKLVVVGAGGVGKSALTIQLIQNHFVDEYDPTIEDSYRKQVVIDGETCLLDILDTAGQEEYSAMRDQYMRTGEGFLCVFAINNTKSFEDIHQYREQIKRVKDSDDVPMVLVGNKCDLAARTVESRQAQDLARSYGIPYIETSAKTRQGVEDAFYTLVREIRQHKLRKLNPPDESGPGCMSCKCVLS
In short: as §1

[3] = tested on: human lung cancer strain NCI-H441; test: NCI-H441 cell proliferation inhibitory activity (CellTiter-Glo, 4 days); assay type: cell-based; conditions: read-out: NCl-H441 IC50
In short: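 Signal came from […] measured per well once the reagent was added. Beforehand, cells were cultured at 37°C and 5% carbon dioxide on a compound series serially diluted in dimethyl sulfoxide.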

[4] = Single Cycle Kinetics, 1:1 binding model
[5] = ratio of KD with respect to GDP-bound NRAS wild-type protein to KD with respect to KRAS
[6] = ratio of KD with respect to HRAS wild-type protein to KD with respect to KRAS
[7] = 50% proliferation inhibitory concentration, four days
[8] = ratio of KD for GDP-bound NRAS wild-type protein to KD for KRAS
[9] = ratio of KD for HRAS wild-type protein to KD for KRAS

GDP-bound KRAS wild-type protein, sequence (P01116 1-188 isoform P01116-2): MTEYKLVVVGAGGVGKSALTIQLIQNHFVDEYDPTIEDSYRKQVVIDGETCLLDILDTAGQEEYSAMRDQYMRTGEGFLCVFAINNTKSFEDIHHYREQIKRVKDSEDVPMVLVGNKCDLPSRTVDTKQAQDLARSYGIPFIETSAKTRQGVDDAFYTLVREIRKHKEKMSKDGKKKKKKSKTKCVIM

Structure (SMILES) | Kd [1, 4] [nM] | NRAS /KRAS [2, 5] | HRAS /KRAS (HRAS wild-type protein; [6]) | IC50 [3, 7] [nM] | Kd ([1]; 1:1 binding model) [nM] | NRAS /KRAS [2, 8] | HRAS /KRAS (HRAS wild-type protein; [9]) | IC50 ([3]; NCI-H441 cells, 4 days) [nM] | Kd ([1]; Single Cycle Kinetics) [nM]
CCO[C@@H]1C[C@H]2C(=O)NC3(CCC3)C(=O)N(C)[C@@H](C3CCCC3)C(=O)N(C)[C@H](C(=O)N3CCOCC3)CC(=O)N(C)[C@@H](CC3CCC3)C(=O)N[C@@H]([C@@H](C)CC)C(=O)N(C)CC(=O)N(C)[C@H]3C/C=C\CCN(C3=O)[C@@H](Cc3ccc(C(F)(F)F)cc3)C(=O)N(C)CC(=O)N[C@@H](CCc3cc(F)c(C(F)(F)F)c(F)c3)C(=O)N2C1 [PP1422] | 0.22 | AA (a compound having 20 or more is denoted as AA) | A (a compound having 10 or more and less than 20 is denoted as A) | 14.1 |  |  |  |  | 
CCCO[C@H](C)[C@@H]1NC(=O)[C@H](CC(C)C)N(C)C(=O)C[C@@H](C(=O)N(C)CC)N(C)C(=O)[C@H](C2CCCC2)N(C)C(=O)C2(CC(C)(C)C2)NC(=O)[C@@H]2C[C@H](C)CN2C(=O)[C@H](CCc2ccc(C(F)(F)F)c(OC)c2)NC(=O)CN(C)C(=O)[C@H](Cc2ccc(C)cc2)N2CC/C=C\C[C@@H](C2=O)N(C)C(=O)CN(C)C1=O [PP2416] |  |  |  |  | 0.29 | A (a compound having 10 or more and less than 20 is denoted as A) | B (a compound having 3 or more and less than 10 is denoted as B) | 33.1 | 
CCCC[C@H]1C(=O)N[C@@H]([C@@H](C)CC)C(=O)N(C)CC(=O)N(C)[C@H]2C/C=C\CCN(C2=O)[C@@H](Cc2ccc(C(F)(F)F)cc2)C(=O)N(C)CC(=O)N[C@@H](CCc2cc(F)c(C(F)(F)F)c(F)c2)C(=O)N2C[C@H](OCC)C[C@H]2C(=O)NC2(CCCC2)C(=O)N(C)[C@@H](C2CCCC2)C(=O)N(C)[C@H](C(=O)N(C)C)CC(=O)N1C [PP1397] | 0.073 | A (a compound having 10 or more and less than 20 is denoted as A) | A (a compound having 10 or more and less than 20 is denoted as A) | 3.7 |  |  |  |  | 
CCC[C@H]1C(=O)N[C@@H]([C@@H](C)CC)C(=O)N(C2CC2)CC(=O)N(C)[C@H]2C/C=C\CCN(C2=O)[C@@H](Cc2ccc(C)cc2)C(=O)N(C)CC(=O)N[C@@H](CCc2cc(F)c(C(F)(F)F)c(F)c2)C(=O)N2C[C@H](OCC)C[C@H]2C(=O)NC2(CCCC2)C(=O)N(C)[C@@H](C2CCCC2)C(=O)N(C)[C@H](C(=O)N(C)C)CC(=O)N1C [PP3479] |  |  |  |  |  | A (a compound having 10 or more and less than 20 is denoted as A) | A (a compound having 10 or more and less than 20 is denoted as A) | 11.7 | 0.51
CCC[C@H]1C(=O)N[C@@H]([C@@H](C)CC)C(=O)N2CCC[C@H]2C(=O)N(C)[C@H]2C/C=C\CCN(C2=O)[C@@H](Cc2ccc(C(F)(F)F)cc2)C(=O)N(C)CC(=O)N[C@@H](CCc2ccc(C(F)(F)F)c(Cl)c2)C(=O)N2CC[C@H](OC)[C@H]2C(=O)N(C)C2(CCC2)C(=O)N(C)[C@@H](C2CCCC2)C(=O)N(C)[C@H](C(=O)N(C)C)CC(=O)N1C [PP3289] |  |  |  |  |  | A (a compound having 10 or more and less than 20 is denoted as A) | A (a compound having 10 or more and less than 20 is denoted as A) | 17.6 | 0.26
CCO[C@@H]1C[C@H]2C(=O)NC3(CCC3)C(=O)N(C)[C@@H](C(CC)CC)C(=O)N(C)[C@H](C(=O)N(C)C)CC(=O)N(C)[C@@H](CC)C(=O)N[C@@H]([C@@H](C)CC)C(=O)N(C)CC(=O)N(C)[C@H]3C/C=C\CCN(C3=O)[C@@H](Cc3ccc(C(F)(F)F)cc3)C(=O)N(C)CC(=O)N[C@@H](CCc3ccc4sccc4c3)C(=O)N2C1 [PP1223] | 1.2 | AA (a compound having 20 or more is denoted as AA) | A (a compound having 10 or more and less than 20 is denoted as A) | 117 |  |  |  |  | 
CCCOC[C@H]1C(=O)N[C@@H]([C@@H](C)OCCC)C(=O)N(CCC)CC(=O)N(C)[C@H]2C/C=C\CCN(C2=O)[C@@H](Cc2ccc(C(F)F)cc2)C(=O)N(C)CC(=O)N[C@@H](CCc2cc(F)c(C(F)(F)F)c(F)c2)C(=O)N2C[C@H](OC(C)C)C[C@H]2C(=O)N(C)C2(CCC2)C(=O)N(C)[C@@H](C(CC)CC)C(=O)N(C)[C@H](C(=O)N(C)C)CC(=O)N1C [PP3488] |  |  |  |  |  | A (a compound having 10 or more and less than 20 is denoted as A) | A (a compound having 10 or more and less than 20 is denoted as A) | 30.7 | 0.71
CCCO[C@@H]1C[C@H]2C(=O)NC3(CC(C)(C)C3)C(=O)N(C)[C@@H](C3CCCC3)C(=O)N(C)[C@H](C(=O)N(C)CC)CC(=O)N(C)[C@@H](COCC)C(=O)N[C@@H]([C@@H](C)CC)C(=O)N3C[C@@H](C)C[C@H]3C(=O)N(C)[C@H]3C/C=C\CCN(C3=O)[C@@H](Cc3ccc(C)cc3)C(=O)N(C)CC(=O)N[C@@H](CCc3cc(F)c(C(F)(F)F)c(F)c3)C(=O)N2C1 [PP3460] |  |  |  |  |  | A (a compound having 10 or more and less than 20 is denoted as A) | A (a compound having 10 or more and less than 20 is denoted as A) | 115 | 3.1
CC[C@H](C)[C@@H]1NC(=O)[C@H](CC)N(C)C(=O)C[C@@H](C(=O)N(C)C)N(C)C(=O)[C@H](C2CCCC2)N(C)C(=O)C2(CCC2)NC(=O)[C@@H]2CC(F)(F)CN2C(=O)[C@H](CCc2cc(F)c(C(F)(F)F)c(F)c2)NC(=O)CN(C)C(=O)[C@H](Cc2ccc(C(F)(F)F)cc2)N2CC/C=C\C[C@@H](C2=O)N(C)C(=O)CN(C)C1=O [PP1129] | 0.056 | A (a compound having 10 or more and less than 20 is denoted as A) | B (a compound having 3 or more and less than 10 is denoted as B) | 10.2 |  |  |  |  | 
CCO[C@H](C)[C@@H]1NC(=O)[C@H](CC(C)C)N(C)C(=O)C[C@@H](C(=O)N(C)CC)N(C)C(=O)[C@H](C2CCCC2)N(C)C(=O)C2(CC(C)(C)C2)NC(=O)[C@@H]2C[C@H](C)CN2C(=O)[C@H](CCc2ccc(C(F)(F)F)c(OC)c2)NC(=O)CN(C)C(=O)[C@H](Cc2ccc(C)cc2)N2CC/C=C\C[C@@H](C2=O)N(C)C(=O)CN(C)C1=O [PP2413] |  |  |  |  | 0.25 | A (a compound having 10 or more and less than 20 is denoted as A) | A (a compound having 10 or more and less than 20 is denoted as A) | 115 | 
CCCO[C@@H]1C[C@H]2C(=O)NC3(CC(C)(C)C3)C(=O)N(C)[C@@H](C3CCCC3)C(=O)N(C)[C@H](C(=O)N(C)CC)CC(=O)N(C)[C@@H](COCC)C(=O)N[C@@H]([C@@H](C)CC)C(=O)N3CCC[C@H]3C(=O)N(C)[C@H]3C/C=C\CCN(C3=O)[C@@H](Cc3ccc(C(F)(F)F)cc3)C(=O)N(C)CC(=O)N[C@@H](CCc3cc(F)c(C(F)(F)F)c(F)c3)C(=O)N2C1 [PP3471] |  |  |  |  |  | A (a compound having 10 or more and less than 20 is denoted as A) | A (a compound having 10 or more and less than 20 is denoted as A) | 48.7 | 1.1
CCC[C@H]1C(=O)N[C@@H]([C@@H](C)CC)C(=O)N(C2CC2)CC(=O)N(C)[C@H]2C/C=C\CCN(C2=O)[C@@H](Cc2ccc(C)cc2)C(=O)N(C)CC(=O)N[C@@H](CCc2cc(F)c(C(F)(F)F)c(F)c2)C(=O)N2C[C@H](OC(C)C)C[C@H]2C(=O)NC2(CC(C)(C)C2)C(=O)N(C)[C@@H](C2CCCC2)C(=O)N(C)[C@H](C(=O)N(C)C)CC(=O)N1C [PP2570] |  |  |  |  | 0.39 | A (a compound having 10 or more and less than 20 is denoted as A) | A (a compound having 10 or more and less than 20 is denoted as A) | 8.9 | 
CCC[C@H]1C(=O)N[C@@H](CC(C)C)C(=O)N(CC)CC(=O)N(C)[C@H]2C/C=C\CCN(C2=O)[C@@H](Cc2ccc(C)cc2)C(=O)N(C)CC(=O)N[C@@H](CCc2cc(F)c(C(F)(F)F)c(F)c2)C(=O)N2C[C@H](OCC)C[C@H]2C(=O)NC2(CCC2)C(=O)N(C)[C@@H](C2CCCC2)C(=O)N(C)[C@H](C(=O)N(C)C)CC(=O)N1C [PP2539] |  |  |  |  | 4.3 | A (a compound having 10 or more and less than 20 is denoted as A) | B (a compound having 3 or more and less than 10 is denoted as B) | 330 | 
CCC[C@H]1C(=O)N[C@@H]([C@@H](C)CC)C(=O)N(C)CC(=O)N(C)[C@H]2C/C=C\CCN(C2=O)[C@@H](Cc2ccc(C(F)(F)F)cc2)C(=O)N(C)CC(=O)N[C@@H](CCc2ccc(C(F)(F)F)c(OC)c2)C(=O)N2CC3(CC3)C[C@H]2C(=O)N(C)C2(CCC2)C(=O)N(C)[C@@H]([C@@H](C)CC)C(=O)N(C)[C@H](C(=O)N(C)C)CC(=O)N1C [PP3291] |  |  |  |  |  | A (a compound having 10 or more and less than 20 is denoted as A) | B (a compound having 3 or more and less than 10 is denoted as B) | 3.7 | 0.85
CCOC[C@H]1C(=O)N[C@@H]([C@@H](C)CC)C(=O)N(C)CC(=O)N(C)[C@H]2C/C=C\CCN(C2=O)[C@@H](Cc2ccc(C)cc2)C(=O)N(C)CC(=O)N[C@@H](CCc2ccc(C(F)(F)F)c(Cl)c2)C(=O)N2C[C@@H](C)C[C@H]2C(=O)NC2(CC(C)(C)C2)C(=O)N(C)[C@@H](C2CCCC2)C(=O)N(C)[C@H](C(=O)N(CC)CC)CC(=O)N1C [PP2465] |  |  |  |  | 0.51 | AA (a compound having 20 or more is denoted as AA) | A (a compound having 10 or more and less than 20 is denoted as A) | 39.4 | 
